Measured values reported in ChEMBL document CHEMBL1151324, “Cytotoxic geranyl stilbenes from Macaranga schweinfurthii” (J Nat Prod, 1998).
≈ marks a conversion by molar mass, not a printed value.

Tests used:
A549 [1] = test: Cytotoxicity against human A549 cells after 1 hr; type: functional, cell-based; settings: A549, 1 h
A549 [2] = test: Cytotoxicity against human A549 cells after 1 hr compound washout; type: functional, cell-based; settings: A549, 1 h
SF-295 [3] = test: Cytotoxicity against human SF295 cells after 1 hr compound washout; type: functional, cell-based; settings: SF-295, 1 h
SF-295 [4] = test: Cytotoxicity against human SF295 cells after 48 hrs; type: functional, cell-based; settings: SF-295, 48 h
K562 = test: Cytotoxicity against human K562 cells; type: functional
RPMI-8226 = test: Cytotoxicity against human RPMI8226 cells; type: functional
A549 [5] = test: Cytotoxicity against human A549 cells; type: functional
EKVX = test: Cytotoxicity against human EKVX cells; type: functional
HOP-62 = test: Cytotoxicity against human HOP62 cells; type: functional
NCI-H226 = test: Cytotoxicity against human NCI-H226 cells; type: functional
NCI-H322M = test: Cytotoxicity against human NCI-H322M cells; type: functional
NCI-H460 = test: Cytotoxicity against human NCI-H460 cells; type: functional
NCI-H522 = test: Cytotoxicity against human NCI-H522 cells; type: functional
COLO 205 = test: Cytotoxicity against human COLO205 cells; type: functional
HCC 2998 = test: Cytotoxicity against human HCC2998 cells; type: functional
HCT-116 = test: Cytotoxicity against human HCT116 cells; type: functional
HCT-15 = test: Cytotoxicity against human HCT15 cells; type: functional
HT-29 = test: Cytotoxicity against human HT-29 cells; type: functional
KM12 = test: Cytotoxicity against human KM12 cells; type: functional
SW-620 = test: Cytotoxicity against human SW620 cells; type: functional
SF-268 = test: Cytotoxicity against human SF268 cells; type: functional
SNB-75 = test: Cytotoxicity against human SNB75 cells; type: functional
U-251 = test: Cytotoxicity against human U251 cells; type: functional
LOX IMVI = test: Cytotoxicity against human LOXIMVI cells; type: functional
Malme-3M = test: Cytotoxicity against human MALME-3M cells; type: functional
M14 = test: Cytotoxicity against human M14 cells; type: functional
SK-MEL-2 = test: Cytotoxicity against human SK-MEL-2 cells; type: functional
SK-MEL-28 = test: Cytotoxicity against human SK-MEL-28 cells; type: functional
SK-MEL-5 = test: Cytotoxicity against human SK-MEL-5 cells; type: functional
UACC-257 = test: Cytotoxicity against human UACC257 cells; type: functional
UACC-62 = test: Cytotoxicity against human UACC62 cells; type: functional
IGROV-1 = test: Cytotoxicity against human IGROV1 cells; type: functional
OVCAR-3 = test: Cytotoxicity against human OVCAR-3 cells; type: functional
OVCAR-4 = test: Cytotoxicity against human OVCAR4 cells; type: functional
SK-OV-3 = test: Cytotoxicity against human SKOV3 cells; type: functional
A498 = test: Cytotoxicity against human A498 cells; type: functional
RXF 393 = test: Cytotoxicity against human RXF393 cells; type: functional
TK-10 = test: Cytotoxicity against human TK10 cells; type: functional
UO-31 = test: Cytotoxicity against human UO31 cells; type: functional
MCF7 [6] = test: Cytotoxicity against human MCF7 cells; type: functional
MCF7 [7] = test: Cytotoxicity against human doxorubicin-resistant MCF7 cells; type: functional
MDA-MB-231 = test: Cytotoxicity against human MDA-MB-231 cells; type: functional
[8] = Cytotoxicity against human Hs 578T cells; type: functional
MDA-MB-435 = test: Cytotoxicity against human MDA-MB-435 cells; type: functional
MDA-N = test: Cytotoxicity against human MDA-N cells; type: functional
BT-549 = test: Cytotoxicity against human BT549 cells; type: functional
[9] = read-out: pLC50 (the source's name) (converted)

COc1cc(/C=C/c2cc(O)c(C/C=C(\C)CCC=C(C)C)c(O)c2)cc2c1O[C@]1(C)C[C@@H](O)[C@@H](O)C(C)(C)[C@H]1C2 [SCHWEINFURTHIN B]
IC50 (A549 [1]): > 100 µg/mL | IC50 (A549 [2]): 80 µg/mL (≈ 142 µM) | IC50 (SF-295 [3]): 2.9 µg/mL (≈ 5.15 µM) | IC50 (SF-295 [4]): 0.009 µg/mL (≈ 0.016 µM) | GI50 (K562): 0.347 µM | LC50 (K562): 36.3 µM | TGI (K562; read-out: pTGI (converted)): 6.17 µM | GI50 (RPMI-8226): 0.0151 µM | LC50 (RPMI-8226): 12 µM | TGI (RPMI-8226; read-out: pTGI (converted)): 0.11 µM | GI50 (A549 [5]): 0.339 µM | LC50 (concentration killing 50% of cells) (A549 [5]): 38.9 µM | TGI (A549 [5]; read-out: pTGI (converted)): 14.1 µM | GI50 (EKVX): 0.933 µM | LC50 (EKVX): 38 µM | TGI (EKVX; read-out: pTGI (converted)): 14.1 µM | GI50 (HOP-62): 0.851 µM | LC50 (HOP-62): 40.7 µM | TGI (HOP-62; read-out: pTGI (converted)): 14.1 µM | GI50 (NCI-H226): 2.19 µM | LC50 (NCI-H226): 77.6 µM | TGI (NCI-H226; read-out: pTGI (converted)): 14.1 µM | GI50 (NCI-H322M): 3.39 µM | LC50 (NCI-H322M): 42.7 µM | TGI (NCI-H322M; read-out: pTGI (converted)): 17 µM | GI50 (NCI-H460): 0.269 µM | LC50 (NCI-H460): 57.5 µM | TGI (NCI-H460; read-out: pTGI (converted)): 12.9 µM | GI50 (NCI-H522): 3.02 µM | LC50 (NCI-H522): 39.8 µM | TGI (NCI-H522; read-out: pTGI (converted)): 17 µM | GI50 (COLO 205): 0.617 µM | LC50 (COLO 205): 6.76 µM | TGI (COLO 205; read-out: pTGI (converted)): 2.4 µM | GI50 (HCC 2998): 3.63 µM | LC50 (HCC 2998): 34.7 µM | TGI (HCC 2998; read-out: pTGI (converted)): 11 µM | GI50 (HCT-116): 0.575 µM | LC50 (HCT-116): 22.9 µM | TGI (HCT-116; read-out: pTGI (converted)): 6.61 µM | GI50 (HCT-15): 1.91 µM | LC50 (HCT-15): 33.9 µM | TGI (HCT-15; read-out: pTGI (converted)): 6.92 µM | GI50 (HT-29): 0.372 µM | LC50 (HT-29): 5.5 µM | TGI (HT-29; read-out: pTGI (converted)): 2.09 µM | GI50 (KM12): 1.29 µM | LC50 (KM12): 18.2 µM | TGI (KM12; read-out: pTGI (converted)): 9.33 µM | GI50 (SW-620): 0.676 µM | LC50 (SW-620): 17 µM | TGI (SW-620; read-out: pTGI (converted)): 3.09 µM | GI50 (SF-268): 4.37 µM | LC50 (SF-268): 75.9 µM | TGI (SF-268; read-out: pTGI (converted)): 24 µM | GI50 (SNB-75): 0.0251 µM | LC50 (SNB-75): 60.3 µM | TGI (SNB-75; read-out: pTGI (converted)): 1.82 µM | GI50 (U-251): 0.2 µM | LC50 (U-251): 49 µM | TGI (U-251; read-out: pTGI (converted)): 24 µM | GI50 (LOX IMVI): 0.38 µM | LC50 (LOX IMVI): 30.9 µM | TGI (LOX IMVI; read-out: pTGI (converted)): 17 µM | GI50 (Malme-3M): 8.71 µM | LC50 (Malme-3M): 69.2 µM | TGI (Malme-3M; read-out: pTGI (converted)): 26.9 µM | GI50 (M14): 0.141 µM | LC50 (M14): 4.17 µM | TGI (M14; read-out: pTGI (converted)): 1.2 µM | GI50 (SK-MEL-2): 1.82 µM | LC50 (SK-MEL-2): 46.8 µM | TGI (SK-MEL-2; read-out: pTGI (converted)): 17 µM | GI50 (SK-MEL-28): 1.1 µM | LC50 (SK-MEL-28): 52.5 µM | TGI (SK-MEL-28; read-out: pTGI (converted)): 12.9 µM | GI50 (SK-MEL-5): 0.209 µM | LC50 (SK-MEL-5): 28.8 µM | TGI (SK-MEL-5; read-out: pTGI (converted)): 8.91 µM | GI50 (UACC-257): 5.75 µM | LC50 (UACC-257): 46.8 µM | TGI (UACC-257; read-out: pTGI (converted)): 20.9 µM | GI50 (UACC-62): 0.331 µM | LC50 (UACC-62): 10 µM | TGI (UACC-62; read-out: pTGI (converted)): 2.29 µM | GI50 (IGROV-1): 2.4 µM | LC50 (IGROV-1): 42.7 µM | TGI (IGROV-1; read-out: pTGI (converted)): 18.2 µM | GI50 (OVCAR-3): 3.89 µM | LC50 (OVCAR-3): 42.7 µM | TGI (OVCAR-3; read-out: pTGI (converted)): 12.9 µM | GI50 (OVCAR-4): 12 µM | LC50 (OVCAR-4): 77.6 µM | TGI (OVCAR-4; read-out: pTGI (converted)): 50.1 µM | GI50 (SK-OV-3): 2.57 µM | LC50 (SK-OV-3): 40.7 µM | TGI (SK-OV-3; read-out: pTGI (converted)): 15.8 µM | GI50 (A498): 1.7 µM | LC50 (A498): 44.7 µM | TGI (A498; read-out: pTGI (converted)): 17 µM | GI50 (RXF 393): 0.01 µM | LC50 (RXF 393): 7.08 µM | TGI (RXF 393; read-out: pTGI (converted)): 0.269 µM | GI50 (TK-10): 6.17 µM | LC50 (TK-10): 52.5 µM | TGI (TK-10; read-out: pTGI (converted)): 21.9 µM | GI50 (UO-31): 0.0759 µM | LC50 (UO-31): 5.25 µM | TGI (UO-31; read-out: pTGI (converted)): 0.912 µM | GI50 (MCF7 [6]): 0.2 µM | CC50 (MCF7 [6]; [9]): 38.9 µM | TGI (MCF7 [6]; read-out: pTGI (converted)): 6.03 µM | GI50 (MCF7 [7]): 6.92 µM | CC50 (MCF7 [7]; [9]): 75.9 µM | TGI (MCF7 [7]; read-out: pTGI (converted)): 30.2 µM | GI50 (MDA-MB-231): 6.46 µM | CC50 (MDA-MB-231; [9]): 81.3 µM | TGI (MDA-MB-231; read-out: pTGI (converted)): 38 µM | GI50 [8]: 0.0199 µM | CC50 [8, 9]: > 100 µM | TGI ([8]; read-out: pTGI (converted)): 1.1 µM | GI50 (MDA-MB-435): 7.59 µM | CC50 (MDA-MB-435; [9]): 72.4 µM | TGI (MDA-MB-435; read-out: pTGI (converted)): 33.1 µM | GI50 (MDA-N): 3.39 µM | CC50 (MDA-N; [9]): 28.8 µM | TGI (MDA-N; read-out: pTGI (converted)): 15.1 µM | GI50 (BT-549): 11 µM | CC50 (BT-549; [9]): 83.2 µM | TGI (BT-549; read-out: pTGI (converted)): 39.8 µM
